Laboratory results reported in patent US20110250137A1, “RADIOISOTOPE-LABELED LYSINE AND ORNITHINE DERIVATIVES, THEIR USE AND PROCESSES FOR THEIR PREPARATION” (priority 2008, published 2011).
Structures can show the parent of a compound that is named as a salt.

Columns and labels:
[1] = Welch et al. 1986; cited from earlier work
[2] = system: A549 cells; assay: cell competition experiment using 14C-ornithine as tracer; assay type: cell-based, human; conditions: 0.1 μCi 14C-ornithine tracer, compound 1 mM, incubation 10 min
Protocol: (3R)-3-fluoro-L-ornithine-dihydrochloride (31) was used in a cell competition experiment using ^14C-ornithine as tracer.
FIG. 3: The specificity of (3R)-3-fluoro-L-ornithine-dihydrochloride (31) to compete for ^14C-Ornithine uptake was determined in a cell competition experiment in A549 cells. (0.1 μCi ^14C-Ornithine was used as tracer, (3R)-3-fluoro-L-ornithine-dihydrochloride was used at a concentration of 1 mM, incubation period 10 min).

[3] = system: PC3 tumor cells; assay: cell competition experiment, uptake of tracer (29) against excess L-ornithine; assay type: cell-based; conditions: 0.25 MBq tracer, 1 mM L-ornithine, incubation 30 min
Protocol: (§1) To determine the specificity of (4S)-[^18F]-fluoro-L-ornithine (29), the fluorinated compound was used as tracer in a cell competition experiment in A549 as well as PC3 tumor cells against an excess of L-Ornithine (1 mM).
(§2) FIG. 4: The specificity of (4S)-[^18F]-fluoro-L-ornithine (29) for uptake into tumor cells was determined in cell competition experiments using A549 as well as PC3 tumor cells. (0.25 MBq of (4S)-[^18F]-fluoro-L-ornithine was used as tracer, an excess of 1 mM L-ornithine was used for saturation of uptake systems, incubation time 30 min).

[4] = system: A549 cells; assay: time dependence of uptake of tracer (29), cell-bound fraction; assay type: cell-based, human; conditions: 0.25 MBq, 60 min incubation
Protocol: (§3) In a second experiment, A549 and PC3 cells were incubated with (4S)-[^18F]-fluoro-L-ornithine for up to 60 min and the cell-bound fraction was determined. Approximately 5% of applied dose was taken up by the cells during the 60 min incubation period (FIG. 5).
(§4) FIG. 5: The time dependence of uptake of (4S)-[^18F]-fluoro-L-ornithine(29) was determined. (A549 and PC3 cells were incubated with 0.25 MBq (4S)-[^18F]-fluoro-L-ornithine for up to 60 min and the cell-bound fraction was determined after 10, 20, 30 and 60 min)

[5] = system: A549 tumor cells; assay: retention of activity in tumor cells under efflux conditions; assay type: cell-based, human; conditions: A549 cells loaded 30 min with 0.25 MBq, then 30 min in new buffer (efflux conditions)
Protocol: In a third experiment, the retention of activity in tumor cells was examined. A549 cells were incubated with (4S)-[^18F]-fluoro-L-ornithine for 30 min. After this time, cells were incubated with new buffer (without radiotracer) for up to 30 min. The release of radioactivity into the supernatant as well as the retention inside the cells was examined. It was discovered, that approximately 66% of activity were retained in the tumor cells after 30 min under efflux conditions (FIG. 6).
FIG. 6: Examination of retention of (4S)-[^18F]-fluoro-L-ornithine (29) in A549 tumor cells. A549 cells were loaded with 0.25 MBq (4S)-[^18F]-fluoro-L-ornithine for 30 min in PBS. After washing, the cells were incubated with new buffer (without activity) for additional 10, 20, 30 min. The release of radioactivity into the supernatant as well as the retention inside the cells was determined.

[6] = system: NCI-H460 (human NSCLC) tumor bearing rats; assay: radioactivity in removed organs after the PET-imaging study (biodistribution); assay type: in vivo, rat; conditions: 98 min p.i.
Protocol: (§5) Animal experiments. (4S)-[^18F]-fluoro-L-ornithine was examined in NCI-H460 (human NSCLC) tumor bearing rats using PET-Imaging. PET images were obtained from 45 min after administration of the radiotracer (7.16 MBq) for 30 min. […] After the PET-imaging study (98 min p.i.) the rat was sacrificed, several organs were removed and the amount of radioactivity in tissues was measured.

[7] = system: A549 tumor cells; assay: cell competition experiment, uptake of tracer (29) against excess L-ornithine; assay type: cell-based, human; conditions: 0.25 MBq tracer, 1 mM L-ornithine, incubation 30 min
Protocol: as §1, §2

[8] = system: PC3 cells; assay: time dependence of uptake of tracer (29), cell-bound fraction; assay type: cell-based; conditions: 0.25 MBq, 60 min incubation
Protocol: as §3, §4

[9] = system: NCI-H460 (human NSCLC) tumor bearing rats; assay: PET-Imaging in tumor bearing rats; assay type: in vivo, rat
Protocol: as §5
FIG. 7: PET-Imaging of (4S)-[^18F]-fluoro-L-ornithine (29) in H460 tumor bearing rats. 7.16 MBq of radioactive tracer was injected i.v. into rats. PET images were obtained using the Inveon PET/CT scanner from 45 min p.i. for 30 min.

[10] = system: PC3 (prostate) tumor cell line; assay: time-dependence of binding of tracer (38) to tumor cell lines; assay type: cell-based; conditions: 30 min incubation with 0.25 MBq
Protocol: In a second experiment, the time-dependence of binding of (5R)-[^18F]-fluoromethyl-L-ornithine to several tumor cell lines was determined using A549, H460 as well as PC3 (prostate) and DU145 (prostate) tumor cell lines. After 30 min incubation with 0.25 MBq up to 5% (PC3 cells) of applied dose were bound to the cells (FIG. 2).
FIG. 2: Binding of (5R)-[^18F]-fluoromethyl-L-ornithine (38) to several tumor cell lines. (A549, H460 (both human NSCLC) as well as PC3 and DU145 (both prostate) tumor cell lines were used and incubated with 0.25 MBq (5R)-[^18F]-fluoromethyl-L-ornithine for up to 30 min. The cell-bound fraction of activity was determined after 10 min, 20 min and 30 min.

[11] = system: A549 (human NSCLC) tumor cells; assay: cell competition experiment, uptake of tracer (38) against excess L-ornithine; assay type: cell-based; conditions: 30 min incubation, 0.25 MBq tracer in PBS, L-ornithine 1 mM
Protocol: (§6) To determine the specificity of (5R)-[^18F]-fluoromethyl-L-ornithine (38), the fluorinated compound was used as tracer in a cell competition experiment in A549 (human NSCLC) as well as H460 (human NSCLC) tumor cells using an excess of L-ornithine (1 mM) for competition.
(§7) FIG. 1: Examination of biological activity of (5R)-[^18F]-fluoromethyl-L-ornithine (38) from in a cell-competition-experiment. (NCI-H460 and A549 cells, 30 min incubation with 0.25 MBq (5R)-[^18F]-fluoromethyl-L-ornithine in PBS-Puffer, concentration of L-ornithine 1 mM).

[12] = system: H460 (human NSCLC) tumor cells; assay: as above; assay type: cell-based; conditions: 30 min incubation, 0.25 MBq tracer in PBS, L-ornithine 1 mM
Protocol: as §6, §7

[13] = PET from 45 min p.i. for 30 min, 7.16 MBq i.v., H460 tumor

Question: Which “in-vivo release of free [18F]fluoride” value [1] does the source give for [^18F]fluoro-putricine here?
Answer: relatively high in-vivo release of free [^18F]fluoride

Question: With `NCC[C@@H](F)[C@H](N)C(=O)O` [Example 31, (3R)-3-fluoro-L-ornithine-dihydrochloride] as the compound, how does the “block of uptake of 14C-ornithine” value [2] read?
Answer: can block uptake of ^14C-ornithine in A549 cells to a large extent

Question: Which results are given for `NC[C@@H]([18F])C[C@H](N)C(=O)O` [Example 29, (4S)-[^18F]-fluoro-L-ornithine]?
Answer: uptake of tracer blockable by excess of ornithine [3]: blockable by excess of ornithine; applied dose taken up by the cells [4]: Approximately 5 % of applied dose; activity retained in the tumor cells [5]: approximately 66%; radioactivity in blood ([6]; blood): 0.38 % ID/g; radioactivity in bone ([6]; bone): 2.08 % ID/g; radioactivity in brain ([6]; brain): 0.24 % ID/g; radioactivity in heart ([6]; heart): 0.44 % ID/g; radioactivity in kidney ([6]; kidney): 1.18 % ID/g; radioactivity in liver ([6]; liver): 0.39 % ID/g; radioactivity in lung ([6]; lung): 0.44 % ID/g; radioactivity in pancreas ([6]; pancreas): 2.47 % ID/g; radioactivity in tumor ([6]; tumor): 1.43 % ID/g; uptake of tracer blockable by excess of ornithine [7]: blockable by excess of ornithine; applied dose taken up by the cells [8]: Approximately 5 % of applied dose; injected dose per gram tumor by ROI analyses [9, 13]: up to 2.2 % injected dose per gram; tumor visualization in PET images [9, 13]: very well visualized; defluorination in vivo, uptake of released [F18]-fluoride in the bones ([9]; later time points of PET study): Some partial defluorination

Question: What does the source list for `N[C@@H](C[18F])CC[C@H](N)C(=O)O` [Example 38, (5R)-[^18F]-fluoromethyl-L-ornithine]?
Answer: applied dose bound to the cells [10]: up to 5 % of applied dose; uptake of tracer blockable by excess of L-ornithine [11]: blockable by excess of L-ornithine; uptake of tracer blockable by excess of L-ornithine [12]: blockable by excess of L-ornithine
